Converted amounts (≈) assume the structure as drawn.
Key:
Assay type in all cases: functional
Candida albicans [1] = test: Antifungal activity against Candida albicans MTCC183 assessed as reduction in fungal cell growth incubated for 24 to 48 hrs
Aspergillus niger [2] = test: Antifungal activity against Aspergillus niger MTCC281 assessed as reduction in fungal cell growth incubated for 24 to 48 hrs
Candida albicans [3] = test: Antifungal activity against Candida albicans MTCC 227 assessed as reduction in fungal cell growth incubated for 24 hrs by broth microdilution method; details: MTCC 227, 24 h
Nakaseomyces glabratus [4] = test: Antifungal activity against Candida glabrata NCIM 3236 assessed as reduction in fungal cell growth incubated for 24 hrs by broth microdilution method; details: NCIM 3236, 24 h
Candida albicans [5] = test: Antifungal activity against Candida albicans MTCC 227 assessed as reduction in fungal cell growth incubated for 24 and 48 hrs by broth microdilution method
Aspergillus niger [6] = test: Antifungal activity against Aspergillus niger assessed as inhibition zone at 1 ug/ml incubated for 24 to 72 hrs by disk diffusion method
Aspergillus fumigatus [7] = test: Antifungal activity against Aspergillus fumigatus assessed as inhibition zone at 1 ug/ml incubated for 24 to 72 hrs by disk diffusion method
Aspergillus flavus [8] = test: Antifungal activity against Aspergillus flavus assessed as inhibition zone at 1 ug/ml incubated for 24 to 72 hrs by disk diffusion method
Candida albicans [9] = test: Antifungal activity against Candida albicans ATCC 885653 assessed as inhibition zone at 100 ug/ml incubated for 48 to 72 hrs by agar-diffusion method
Trichoderma harzianum = test: Antifungal activity against Trichoderma harzianum assessed as inhibition zone at 1 ug/ml incubated for 24 to 72 hrs by disk diffusion method
Candida albicans [10] = test: Antifungal activity against Candida albicans
Aspergillus niger [11] = test: Antifungal activity against Aspergillus niger
Aspergillus fumigatus [12] = test: Antifungal activity against Aspergillus fumigatus
Saccharomyces cerevisiae = test: Antifungal activity against Saccharomyces cerevisiae
Nakaseomyces glabratus [13] = test: Antifungal activity against Candida glabrata ATCC 36583 by broth microdilution method
Candida tropicalis [14] = test: Antifungal activity against Candida tropicalis by broth microdilution method
Candida albicans [15] = test: Antifungal activity against Candida albicans NCCS 3471 assessed as inhibition zone at 50 ug/ml by disk diffusion method; details: read-out: IZ
Aspergillus niger [16] = test: Antifungal activity against Aspergillus niger assessed as inhibition zone at 50 ug/ml by disk diffusion method; details: read-out: IZ
Candida albicans [17] = test: Antifungal activity against Candida albicans NCCS 3471 assessed as inhibition zone at 10 ug/ml incubated for 3 to 4 days by disk diffusion method; details: read-out: IZ
Aspergillus fumigatus [18] = test: Antifungal activity against Aspergillus fumigatus NCIM 902 assessed as inhibition zone at 10 ug/ml incubated for 3 to 4 days by disk diffusion method; details: read-out: IZ
Candida albicans [19] = test: Antifungal activity against Candida albicans assessed as reduction in fungal cell growth incubated for 24 hrs by broth microdilution method
Staphylococcus aureus = test: Potency index, ratio for MIC of methicillin to MIC of compound for […] incubated for 24 hrs by broth microdilution method
Aspergillus niger [20] = test: Potency index, ratio for MIC of fluconazole to MIC of compound for antifungal activity against Aspergillus niger
Aspergillus fumigatus [21] = test: Potency index, ratio for MIC of fluconazole to MIC of compound for antifungal activity against Aspergillus fumigatus
Aspergillus flavus [22] = test: Antifungal activity against Aspergillus flavus
Cryptococcus neoformans = test: Antifungal activity against Cryptococcus neoformans LA314 assessed as reduction in fungal cell growth incubated for 48 hrs by broth microdilution method; details: LA314, 48 h
Nakaseomyces glabratus [23] = test: Antifungal activity against Candida glabrata assessed as reduction in fungal cell growth incubated for 48 hrs by broth microdilution method
Candida parapsilosis = test: Antifungal activity against Candida parapsilosis ATCC 22019 assessed as reduction in fungal cell growth incubated for 48 hrs by broth microdilution method; details: Lodderomyces parapsilosis, ATCC 22019, 48 h
Pichia kudriavzevii = test: Antifungal activity against Candida krusei assessed as reduction in fungal cell growth incubated for 48 hrs by broth microdilution method
Candida tropicalis [24] = test: Antifungal activity against Candida tropicalis assessed as reduction in fungal cell growth incubated for 48 hrs by broth microdilution method
Aspergillus niger [25] = test: Antifungal activity against Aspergillus niger assessed as reduction in fungal cell growth incubated for 72 hrs by broth microdilution method
Candida albicans [26] = test: Antifungal activity against Candida albicans V-01-191A-261 assessed as reduction in fungal cell growth incubated for 48 hrs by broth microdilution method; details: V-01-191A-261, 48 h

Clc1ccc(COC(Cn2ccnc2)c2ccc(Cl)cc2Cl)c(Cl)c1 (stereo unspecified) [MICONAZOLE]
MIC (Candida albicans [1]): 25 µg/mL (≈ 60.1 µM) | MIC (Aspergillus niger [2]): 12.5 µg/mL (≈ 30 µM) | MIC (Candida albicans [3]): 12.5 µg/mL (≈ 30 µM) | MIC (Nakaseomyces glabratus [4]): 400 µg/mL (≈ 961 µM)

NYSTATIN
MIC (Candida albicans [5]): 100 µg/mL | inhibition zone (IZ) (Aspergillus niger [6]): 2.4 to 2.8 mm | inhibition zone (IZ) (Aspergillus fumigatus [7]): 2.4 to 2.8 mm | inhibition zone (IZ) (Aspergillus flavus [8]): 2.4 to 2.8 mm | inhibition zone (IZ) (Candida albicans [9]): 21 mm | inhibition zone (IZ) (Trichoderma harzianum): 2.4 to 2.8 mm

O=C(/C=C/c1ccc([N+](=O)[O-])cc1)c1ccc(-n2nnnc2-c2nc(-c3nnnn3-c3ccc(C(=O)/C=C/c4ccc([N+](=O)[O-])cc4)cc3)nc(-c3nnnn3-c3ccc(C(=O)/C=C/c4ccc([N+](=O)[O-])cc4)cc3)n2)cc1
MIC (Candida albicans [10]): < 2.5 µg/mL | MIC (Aspergillus niger [11]): < 2.5 µg/mL | MIC (Aspergillus fumigatus [12]): < 2.5 µg/mL | MIC (Saccharomyces cerevisiae): < 2.5 µg/mL

CC(=O)N1CCN(c2ccc(OCC3COC(Cn4ccnc4)(c4ccc(Cl)cc4Cl)O3)cc2)CC1 (stereo unspecified) [KETOCONAZOLE]
MIC (Candida albicans [10]): 25 to 50 µg/mL (≈ 47 to 94.1 µM) | MIC (Nakaseomyces glabratus [13]): 25 to 50 µg/mL (≈ 47 to 94.1 µM) | MIC (Candida tropicalis [14]): 25 to 50 µg/mL (≈ 47 to 94.1 µM) | zone of inhibition at 50 µg/mL (Candida albicans [15]): 26 mm | zone of inhibition at 50 µg/mL (Aspergillus niger [16]): 23 mm | zone of inhibition at 10 µg/mL (Candida albicans [17]): 24 mm | zone of inhibition at 10 µg/mL (Aspergillus fumigatus [18]): 23 mm

Cn1c(-c2ccc(NC(=O)CSc3nnnn3-c3ccccc3)cc2)nc2cc(Cl)c(Cl)cc21
MIC (Candida albicans [10]): 25 to 50 µg/mL (≈ 49 to 98 µM) | MIC (Nakaseomyces glabratus [13]): 25 to 50 µg/mL (≈ 49 to 98 µM) | MIC (Candida tropicalis [14]): 25 to 50 µg/mL (≈ 49 to 98 µM)

FC(F)(F)c1cc(-c2ccc(I)cc2)nc2nnnn12
MIC (Candida albicans [19]): 62.5 µg/mL (≈ 160 µM) | Ratio (Staphylococcus aureus): >64

O=C(/C=C/c1ccc(OC(F)F)c(O)c1)c1ccc(-n2cnnn2)cc1
Ratio (Aspergillus niger [20]): >4 | Ratio (Aspergillus fumigatus [21]): >4

N#Cc1c(-c2ccco2)nc2sc3c4nnnn4cnc3n2c1=O
zone of inhibition at 1 µg/mL (Aspergillus niger [6]; read-out: IZ): 1.8 to 2.5 mm | zone of inhibition at 1 µg/mL (Aspergillus fumigatus [7]; read-out: IZ): 1.8 to 2.5 mm | zone of inhibition at 1 µg/mL (Aspergillus flavus [8]; read-out: IZ): 1.8 to 2.5 mm | zone of inhibition at 1 µg/mL (Trichoderma harzianum; read-out: IZ): 1.8 to 2.5 mm

CC[C@H]1O[C@@H](/C(C)=C/[C@H](C)/C=C/[C@@H]2[C@@H](C)[C@@H]2/C=C/[C@@H]2O[C@H](Cc3nn[nH]n3)C[C@H](N(C)C)[C@H]2O)CC=C1C
MIC (Aspergillus flavus [22]): 1.5 µg/mL (≈ 2.85 µM) | MIC (Aspergillus fumigatus [12]): 1.5 µg/mL (≈ 2.85 µM)

C[C@@H](c1ncncc1F)[C@](O)(Cn1cncn1)c1ccc(F)cc1F [VORICONAZOLE]
MIC (Cryptococcus neoformans): 0.015 to 0.5 µg/mL (≈ 0.0429 to 1.43 µM) | MIC (Nakaseomyces glabratus [23]): 0.015 to 0.5 µg/mL (≈ 0.0429 to 1.43 µM) | MIC (Candida parapsilosis): 0.015 to 0.5 µg/mL (≈ 0.0429 to 1.43 µM) | MIC (Pichia kudriavzevii): 0.015 to 0.5 µg/mL (≈ 0.0429 to 1.43 µM) | MIC (Candida tropicalis [24]): 0.015 to 0.5 µg/mL (≈ 0.0429 to 1.43 µM) | MIC (Aspergillus niger [25]): 0.015 to 0.5 µg/mL (≈ 0.0429 to 1.43 µM) | MIC (Candida albicans [26]): 0.015 to 0.5 µg/mL (≈ 0.0429 to 1.43 µM)
